Assay results taken from the supplement of paper PMC3974653.
Structures can show the parent of a compound that is named as a salt.

These molecules were tested on MTT (mouse pheochromocytoma) (assay: IC50 of cell viability (ATP content)). Settings: (24 or 48 h).
Summary of the method: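 MTT mouse pheochromocytoma cells were seeded into white 1536-well plates at 5 µl per well from a 200,000 cells/ml suspension in DMEM with 5% FBS and 1% horse serum, then cultured overnight at 37°C, 5% CO2. A pintool added 23 nl of library compound in DMSO at 8 concentrations (final 0.5 nM to 46 µM) for 24 or 48 hrs, and CellTiter-Glo ATP luminescence was read after 15 minutes. Signals were scaled so that positive-control wells equalled 100% and DMSO wells 0%. IC50 values were derived by fitting a four-parameter logistic curve.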

Compound	IC50 of cell viability [µM]
CCC1OC(=O)C(C)[C@@H](O[C@H]2C[C@@](C)(OC)C(O)C(C)O2)C(C)[C@@H](O[C@@H]2OC(C)CC(N(C)C)C2O)[C@@](C)(OC)CC(C)C(=O)[C@@H](C)C(O)[C@]1(C)O (stereo partly drawn) [CLARITHROMYCIN]	> 46
Cc1onc(-c2c(F)cccc2Cl)c1C(=O)NC1C(=O)N2C1SC(C)(C)C2C(=O)[O-].O.[Na+] (stereo not drawn) [FLUCLOXACILLIN MAGNESIUM]	> 46
N[C@@H]1CONC1=O [D-cycloserine]	> 46
NC(CS)C(=O)O (stereo not drawn) [CYSTEINE HYDROCHLORIDE]	> 46
CN(C(=O)CN(CCO)CC(=O)N(C)C(C)(C)Cc1ccccc1)C(C)(C)Cc1ccccc1 [Oxethazaine]	> 46
O=C(O)CC/C=C\CC[C@@H]1[C@@H](N2CCCCC2)[C@@H](O)C[C@@H]1OCc1ccc(-c2ccccc2)cc1 [VAPIPROST HYDROCHLORIDE]	> 46
CC[C@H](C)C(=O)O[C@H]1C[C@@H](C)\C=C2\C=C/[C@H](C)[C@H](CC[C@@H]3C[C@@H](O)CC(=O)O3)[C@@H]12 [Lovastatin]	> 46
Cc1ccc(S(=O)(=O)[N-]Cl)cc1.O.O.O.[Na+] [Chloramine T trihydrate]	> 46
Oc1ccc(C(O)CNCCCCCCNCC(O)c2ccc(O)c(O)c2)cc1O (stereo not drawn) [HEXOPRENALINE SULFATE]	> 46
CN1C2CCC1CC(OC(=O)c1cc(Cl)cc(Cl)c1)C2 (stereo not drawn)	> 46
CC(C)c1cccc(C(C)C)c1O [PROPOFOL]	> 46
N\C1=N\C2=C(N=C[N]2COCCO)C(=O)N1 [Acyclovir]	> 46
COC(=O)C1C(OC(=O)c2ccccc2)CC2CCC1N2C (single isomer, unassigned; (-)) [(-)-Cocaine]	> 46
O=C(O)c1nn(Cc2ccc(Cl)cc2Cl)c2ccccc12 [Lonidamine]	> 46
CC1(C)SC2C(N3C(=O)C(c4ccccc4)NC3(C)C)C(=O)N2C1C(=O)[O-].[K+] (stereo not drawn) [HETACILLIN POTASSIUM]	> 46
O=C(CC1NCCC[C@H]1O)Cn1cnc2cc(Br)c(Cl)cc2c1=O (stereo partly drawn) [HALOFUGINONE LACTATE]	> 46
C[C@@H]\1C[C@@H]2[C@H]3CC[C@](O)(C(C)=O)[C@]3(C)C[C@H](O)[C@]2(F)[C@@]4(C)\C=C/C(=O)/C=C14 [Fluorometholone]	> 46
CC(=O)O[C@H]1C[C@@H]2CC[C@@H]3[C@H](CC[C@]4(C)[C@H](OC(C)=O)[C@@H](N5CC[N+](C)(C)CC5)C[C@@H]34)[C@@]2(C)C[C@@H]1N1CC[N+](C)(C)CC1 [Pipecuronium]	> 46
COc1ccc(C(=O)c2ccc(C)cc2)c(O)c1 [Mexenone]	> 46
O=C(/C=C/c1ccccc1)NCCO [Idrocilamida]	> 46
CC1=C(/C=C/C(C)=C/C=C/C(C)=C/C=C/C=C(C)/C=C/C=C(C)/C=C/C2=C(C)C(=O)CCC2(C)C)C(C)(C)CCC1=O [CANTHAXANTHIN (euglenanone)]	> 46
CC(C)NCC(O)COc1ccc(COCCOC(C)C)cc1.CC(C)NCC(O)COc1ccc(COCCOC(C)C)cc1.O=C(O)/C=C/C(=O)O (stereo not drawn) [Bisoprolol hemifumarate salt]	> 46
CN1CCN(c2c(F)cc3c(=O)c(C(=O)O)cn4c3c2OCN4C)CC1 [Marbofloxacin]	> 46
CC(=O)Oc1cccc(C)c1 [CRESYL ACETATE, M-]	> 46
CCOC(=O)\C1=C(/C)N\C(=C(/C1C2=CC=CC(=C2)[N+]([O-])=O)C(=O)OC)C (stereo not drawn) [NITRENDIPINE]	> 46
C[C@@H]1O[C@@H](O[C@@H]2\C=C/C=C\C=C/C=C\C[C@H](C)OC(=O)/C=C\[C@H]3O[C@@H]3C[C@H](O)C[C@]3(O)C[C@@H](O)[C@@H](C(=O)O)[C@H](C2)O3)[C@H](O)[C@H](N)[C@@H]1O [Natamycin]	> 46
NCC(=O)O [Glycine]	> 46

Compound	IC50 of cell viability [µM]
OCCc1ccccc1 [2-Phenylethanol]	> 46
CCON=C(CC)C/1=C(O)/CC(CC1=O)C2=C(C)C=C(C)C=C2C (stereo not drawn) [Tralkoxydim]	> 46
CN(C)CCc1c[nH]c2ccc(C[S+](=O)([O-])N3CCCC3)cc12 [ALMOTRIPTAN]	> 46
CCOC(=O)C(CCc1ccccc1)NC1CSC(c2cccs2)CN(CC(=O)O)C1=O (stereo not drawn) [TEMOCAPRIL HYDROCHLORIDE]	> 46
CCN(CC)C(=O)/C(Cl)=C(\C)OP(=O)(OC)OC [PHOSPHAMIDON]	> 46
COC1=CC=C2[N]3CCN(C)\C4=N\CCC(=C34)C2=C1 [Metralindole]	> 46
Cc1cc(C)cc(C(=O)OC2CC3CCC(C2)N3C)c1 (stereo not drawn) [TROPANYL 3,5-DIMETHYLBENZOATE]	> 46
O=C1OC(c2cc(I)c(O)c(I)c2)(c2cc(I)c(O)c(I)c2)c2ccccc21 [Tetraiodophenolphthalein]	> 46
O.O.O.O.[Na+].[O-]c1ccccc1-c1ccccc1 [2-Phenylphenol sodium salt tetrahydrate technical]	> 46
NC(=O)[C@H]1O[C@@H](O)[C@H](O)[C@@H](O)[C@@H]1O [GLUCURONAMIDE]	> 46
FC(F)(F)C(F)(F)C(F)(F)C(F)(F)C(F)(F)F [DODECAFLUOROPENTANE]	> 46
CC(C)=CCC/C(C)=C/CC/C(C)=C/CC/C=C(\C)CC/C=C(\C)CCC=C(C)C [SQUALENE]	> 46
NCCCCC(N)C(=O)O (stereo not drawn) [Lysine]	> 46
O=NCc1ccc([N+](=O)[O-])o1 [NIFUROXIME]	> 46
CN1C(=O)COc2c(C(=O)NC3CN4CCC3CC4)cc(Cl)cc21 (stereo not drawn)	> 46
CC(=O)Oc1ccc(C(c2ccc(OC(C)=O)cc2)c2ccccn2)cc1 [Bisacodyl]	> 46
COc1ccc2[nH]cc(CCNC(C)=O)c2c1 [MELATONIN]	> 46
CC(=O)Oc1cccc2c1C(=O)c1c(OC(C)=O)cc(C(=O)O)cc1C2=O [DIACERIN]	> 46
Cn1c(CCCC(=O)O)nc2cc(N(CCCl)CCCl)ccc21 [BENDAMUSTINUM]	> 46
C\C(C)=C\CC1C(=O)N(N(C1=O)C2=CC=CC=C2)C3=CC=CC=C3 [Feprazone]	> 46
CCOC(CN1CCN(CC(C)C(=O)c2ccccc2)CC1)c1ccccc1 (stereo not drawn) [EPRAZINONE HYDROCHLORIDE]	> 46
CN1CCN(C(=O)O[C@H]2c3nccnc3C(=O)N2c2ccc(Cl)cn2)CC1 [Eszopiclone]	> 46
CC(CN1c2ccccc2Sc2ccc([S+](=O)([O-])N(C)C)cc21)N(C)C (stereo not drawn) [Dimethothiazine]	> 46
Cc1onc(-c2ccccc2)c1C(=O)N[C@@H]1C(=O)N2C1SC(C)(C)[C@@H]2C(=O)[O-] (stereo partly drawn) [Oxacillin sodium salt]	> 46
CC(NNC(=O)c1ccccc1)c1ccccc1 (stereo not drawn) [Benmoxin]	> 46
C[N+](C)(C)CCOC(=O)CCC(=O)OCC[N+](C)(C)C.[Cl-].[Cl-] [Succinylcholine chloride]	> 46
